Laboratory results from US20060251714A1, “Pharmaceutical formulations of amyloid inhibiting compounds” (priority 2005, published 2006).

Assays:
[1] = Hygroscopicity of the drug substance; format: physicochemical
Method: (§1) Furthermore, the non-hygroscopic nature of the acid form makes it desirable as active pharmaceutical ingredient. To further protect against any possible gastrointestinal intolerance that could result from the acid form, the tablets are enteric-coated and a modified-release agent is added to control any rapid release of the drug in the stomach and the intestine, respectively.

[2] = system: mild to moderate AD patients; test: Example 11: open-label extension in AD patients, psychometric tests (ADAS-cog, CDR); format: in vivo, human; conditions: for average CDR score (change): after 20 months total on study medication, reported 12-month mean change +1.4 to 2.2 points in comparable patients
From the text: The ADAS-cog test is described in […] Annals of Neurology 23:477-484, which is incorporated herein by reference. It is a validated scale developed specifically as a research instrument to evaluate the severity of cognitive deficits characteristic of patients with AD. This test can usually be administered to participants in less than one hour. The ADAS-cog ranges from 0 to 70 points, with higher scores indicating a greater degree of cognitive impairment. Improved performance can be measured in patients treated with formulations of the invention compared to placebo-treated patients at various time intervals. Improvement can be measured by detecting an improved score in the treated patients compared to untreated controls after 6 months, preferably 12 months, more preferably 18 months or longer. […] Patients with Alzheimer's disease typically show an annual increase in ADAS-cog scores of from about 4-9. An improvement would provide for a lessening in the increase compared to untreated controls, for example, an annual increase of less than about 5 points or 4 points, preferably 3 points, more preferably 2 points or 1 point or even a stabilization or decrease in the score.
The CDR is described in Morris, J (1993) Neurology 43: 2412-2414, which is incorporated herein by reference. Further to the discussion of the CDR test below, it is a global rating scale of dementia that is derived from ratings of impairment assigned by an independent rater in six domains, after approximately a 90-minute interview of the caregiver and participant (Hughes C P, Berg L, Danziger W L, et al. A New Clinical Scale for the Staging of Dementia. Brit. J. Psychiat 1982; 140: 566-572). The CDR scale is from 0-18 with a higher score indicating a worsening impairment. Impairment in each of the six domains is rated as “none” (O), “questionable” (0.5), “mild” (1), “moderate” (2) or “severe” (3). Improvement can be measured by detecting a lower score in the treated patients compared to controls after 6 months, preferably 12 months, more preferably 18 months or longer. […] Patients with Alzheimer's disease typically show an annual increase in CDR scores of from about 1-3. An improvement would provide for an annual increase of less than about 3 points or 2 points, preferably 1 point, more preferably 0.5 points or 0.25 points or even an improvement (reduction) in the score.
The patients from the clinical studies in Example 10 are offered 3-APS (formulation of Table 5 above) at 150 mg BID for an additional 17 months (thus, 20 months total) in an open-label study. For doses at multiples of 50 mg, multiple 50 mg tables are administered. Twenty-four mild to moderate AD patients complete the study. Psychometric tests (ADAS-cog) are performed at each visit, that is every 3 months for the first 9 months and every 4 months for the last […]. Overall, approximately 70% of the mild AD patients show stabilized or improved cognitive function tests after 20 months.

[3] = Example 12: 3-APS concentration in cerebrospinal fluid of CAA patients; format: in vivo; conditions: human, oral, 5 hours post-dose on Week 12, range of means, CSF samples from five patients, some below lower limit of quantitation, read-out: mean concentrations of 3-APS in the cerebrospinal fluid (CSF)
Method: A total of 24 patients who have had lobar cerebral hemorrhage are randomized to receive in a 1:1:1 ratio 3-APS 50, 100 or 150 mg BID for 12 weeks. A lumbar puncture is performed on an optional basis at Weeks 0 and 12 to assess the pharmacological effect of 3-APS on Aβ40, Aβ42 and tau concentrations in cerebrospinal fluid (CSF) and to measure the drug concentration in the CSF. Rating instruments (NIHSS, Barthel Index, ADAS-cog and EXIT25) are administered at Weeks 0 and 12 to evaluate the neurological and cognitive functions as well as the daily functioning.
For pharmacokinetic investigations, blood samples are collected from each patient prior to dosing and at specified time points through 12 h post-dose after the first dose (Week 0) and the last dose (Week 12). Blood samples are also collected prior to the first dose of the day during Week 2, 4 and 8 visits. CSF samples are obtained by lumbar puncture prior to dosing on Week 0 and approximately 5 hours post-dose on Week 12.
The mean concentrations of 3-APS in the cerebrospinal fluid (CSF) 5 hours post-dose on Week 12 range from 3.28 to 4.10 ng/mL confirming that the central nervous system is exposed to the drug.

[4] = dog, in vivo
Method: as §1

[5] = Example 7 Part I: single rising oral doses of NC-758, plasma pharmacokinetics in healthy young and elderly male volunteers; format: in vivo, human; conditions: for AUC∞: mean, only subjects with estimable elimination rate constant
From the text: In the following examples and elsewhere herein, terms are as defined below. The pharmacokinetic parameters were derived by non-compartmental analysis using WinNonlin® (Pharsight Corporation, Mountain View, Calif.) or SAS® for Windows® (SAS Institute Inc., Cary, N.C.).
Cmax —the maximum observed plasma concentration.
Tmax—the time of occurrence of Cmax.
AUC0-t—the area under the plasma concentration versus time curve from time zero to the last sampling time at which concentrations were at or above the limit of quantification, calculated by the linear trapezoidal rule.
AUC∞—the area under the plasma concentrations versus time curve from time zero to infinity, calculated from AUC0-t+(Clast/λz), where Clast is the last observed quantifiable concentration and λz is the apparent terminal rate constant.
t1/2—the apparent terminal half-life, calculated from Ln2/λz.
Part I—The pharmacokinetic profile and the effect of food on single rising oral doses of 3-APS free acid, (modified-release enteric-coated tablet, as described in Table 3 above, hereinafter “NC-758”) in healthy male young (18-45 years) volunteers is determined. For doses at multiples of 100 mg, multiple 100 mg tables are administered. The pharmacokinetics of a single oral dose of NC-758 is also determined in a group of healthy male elderly (≧55 years old) volunteers. The test is a randomized, double-blind, placebo-controlled study to assess the pharmacokinetic profile of 4 single rising oral doses of NC-758 in healthy young (18-45 years) male subjects. Blood samples are collected during 24 h following dosing. Plasma concentrations of 3-APS are determined using a validated LC-MS/MS method.

[6] = 200 mg dose, see Tables 9 and 10
[7] = single oral 100 mg NC-758 (Table 3 tablet), young (18-45 years) male subjects, fasted, n = 5, mean
[8] = single oral 200 mg NC-758 (Table 3 tablet), elderly (>55 years) male subjects, fasted, n = 6, mean
[9] = single oral 200 mg NC-758 (Table 3 tablet), young (18-45 years) male subjects, fasted, n = 6, mean
[10] = single oral 300 mg NC-758 (Table 3 tablet), young (18-45 years) male subjects, fasted, n = 5, mean
[11] = single oral 400 mg NC-758 (Table 3 tablet), young (18-45 years) male subjects, fasted, n = 3, mean

Compound: NCCCS(=O)(=O)O [3-APS, 3-amino-1-propanesulfonic acid]
- hygroscopic nature [1]: non-hygroscopic
- mild AD patients showing stabilized or improved cognitive function tests ([2]; 150 mg BID open-label (Table 5 tablet), after 20 months): approximately 70%
- change from baseline in average ADAS-cog score ([2]; mild AD patients (n=13), 150 mg BID open-label, 20 months, comparable historical controls +8.6 points): +3.5 points
- average CDR score (change) ([2]; mild AD patients): +2.36 points
- average ADAS-cog score (change) ([2]; mild to moderate AD patients (n=24), 150 mg BID open-label, 20 months, comparable historical controls +10.3 points): +7.8 points
- average CDR score (change) ([2]; moderate AD patients): 2.77 points
- concentration at 5 h [3]: 3.28 to 4.1 ng/mL
- tolerability [4]: better tolerated than the sodium salt form
- AUC0-t greater in elderly subjects compared to young subjects [5, 6]: approximately 70%
- Cmax greater in elderly subjects compared to young subjects [5, 6]: approximately 70%
- AUC∞ ([5]; single oral 100 mg NC-758 (Table 3 tablet), young (18-45 years) male subjects, fasted): 1421 ng·h/mL
- AUC0-Tlast [5, 7]: 1392 ng·h/mL
- Cmax [5, 7]: 410 ng/mL
- AUC0-Tlast [5, 8]: 4882 ng·h/mL
- Cmax [5, 8]: 1094 ng/mL
- AUC∞ ([5]; single oral 200 mg NC-758 (Table 3 tablet), young (18-45 years) male subjects, fasted): 2492 ng·h/mL
- AUC0-Tlast [5, 9]: 2898 ng·h/mL
- Cmax [5, 9]: 661 ng/mL
- AUC∞ ([5]; single oral 300 mg NC-758 (Table 3 tablet), young (18-45 years) male subjects, fasted): 4464 ng·h/mL
- AUC0-Tlast [5, 10]: 3999 ng·h/mL
- Cmax [5, 10]: 904 ng/mL
- AUC0-Tlast [5, 11]: 15966 ng·h/mL
- Cmax [5, 11]: 5367 ng/mL
- Tmax ([5]; single oral 400 mg NC-758 (Table 3 tablet), young (18-45 years) male subjects, fasted, n = 3, median): 2 h
